These results are taken from US10239832B2, “N-(1-hydroxy-3-(pyrrolidinyl)propan-2-yl)pyrrolidine-3-carboxamide derivatives as glucosylceramide synthase inhibitors” (BIOMARIN PHARMACEUTICAL INC., priority 2013, dated 2019).

The target in this experiment is T1, GCS (Canis lupus familiaris, UniProt A0A8I3MXG6).
T1 construct: endogenous in cells; host or cells: MDCK (Madin-Darby canine kidney) cells, whole-cell lysate
T1 sequence (A0A8I3MXG6 1-394): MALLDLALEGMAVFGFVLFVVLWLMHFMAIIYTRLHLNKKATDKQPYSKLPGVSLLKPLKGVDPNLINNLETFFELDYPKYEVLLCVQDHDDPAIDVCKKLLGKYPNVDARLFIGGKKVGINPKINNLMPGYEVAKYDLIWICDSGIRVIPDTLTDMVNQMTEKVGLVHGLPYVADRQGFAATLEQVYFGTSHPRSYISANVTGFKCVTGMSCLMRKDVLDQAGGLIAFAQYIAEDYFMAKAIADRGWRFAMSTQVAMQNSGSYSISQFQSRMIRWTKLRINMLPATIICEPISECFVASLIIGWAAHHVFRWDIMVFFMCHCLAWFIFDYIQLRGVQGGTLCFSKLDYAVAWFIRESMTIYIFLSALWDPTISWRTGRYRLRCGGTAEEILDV
The experiment can be described thus: GCS enzymatic assay (MDCK cell lysate, NBD-ceramide to glucosylceramide, LC/MS). Format: biochemical, canine. The note with it: Table 2, the table does not say which of the assays; for IC50: class symbols A, B, C, read-out: Data Range (IC50 values); for Data Range (% inhibition): class symbols D, E, F, NA (not active). In short, it runs like this:
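Dog MDCK cell lysate served as enzyme source, with NBD-ceramide turned over to glucosylceramide and 0.1% DMSO as mock control. The reaction was stopped with acetonitrile. Both lipids were quantified by LC/MS/MS in ESI positive MRM mode against a tolbutamide internal standard, giving IC50 or percent inhibition.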

SMILES strings stand for the structures.

Turning to `CC1(C)CCc2ccc(N3CC[C@@H](C(=O)N[C@H](CN4CCCC4)[C@H](O)c4ccc5c(c4)OCCO5)C3)cc2O1` [Compound 71, (R)-N-((1R,2R)-1-(2,3-dihydrobenzo[b][1,4]dioxin-6-yl)-1-hydroxy-3-(pyrrolidin-1-yl)propan-2-yl)-1-(2,2-dimethylchroman-7-yl)pyrrolidine-3-carboxamide], the IC50 (as a rule, the concentration that gives 50% inhibition) was in the range of 30 to 100 nM. For the compound `CC1(C)CCc2ccc(N3CCC(C(=O)N[C@H](CN4CCCC4)[C@H](O)c4ccc5c(c4)OCCO5)C3)cc2O1` (stereo partly drawn) [Compound 71E, N-((1R,2R)-1-(2,3-dihydrobenzo[b][1,4]dioxin-6-yl)-1-hydroxy-3-(pyrrolidin-1-yl)propan-2-yl)-1-(2,2-dimethylchroman-7-yl)pyrrolidine-3-carboxamide], the “Data Range (% inhibition)” value is reported as “E (50-74% (or less than 75%))”. Take `CC1(C)CCc2ccc(N3CC[C@H](C(=O)N[C@H](CN4CCCC4)[C@H](O)c4ccc5c(c4)OCCO5)C3)cc2O1` [Compound 71F, (S)-N-((1R,2R)-1-(2,3-dihydrobenzo[b][1,4]dioxin-6-yl)-1-hydroxy-3-(pyrrolidin-1-yl)propan-2-yl)-1-(2,2-dimethylchroman-7-yl)pyrrolidine-3-carboxamide]: the “Data Range (% inhibition)” value is reported as “F (1-49% (or less than 50%))”. On to `O=C(N[C@H](CN1CCCC1)[C@H](O)c1ccc2c(c1)OCCO2)[C@@H]1CCN(c2ccc3ccccc3n2)C1` [Compound 72, (R)-N-((1R,2R)-1-(2,3-dihydrobenzo[b][1,4]dioxin-6-yl)-1-hydroxy-3-(pyrrolidin-1-yl)propan-2-yl)-1-(quinolin-2-yl)pyrrolidine-3-carboxamide], for which the IC50 is 1 to 30 nM. Regarding `O=C(N[C@H](CN1CCCC1)[C@H](O)c1ccc2c(c1)OCCO2)C1CCN(c2ccc3ccccc3n2)C1` (stereo partly drawn) [Compound 72A, N-((1R,2R)-1-(2,3-dihydrobenzo[b][1,4]dioxin-6-yl)-1-hydroxy-3-(pyrrolidin-1-yl)propan-2-yl)-1-(quinolin-2-yl)pyrrolidine-3-carboxamide], the “Data Range (% inhibition)” value is “D (75-100%)”. The same measure, in the same setting: the result for `O=C(N[C@H](CN1CCCC1)[C@H](O)c1ccc2c(c1)OCCO2)[C@H]1CCN(c2ccc3ccccc3n2)C1` [Compound 72B, (S)-N-((1R,2R)-1-(2,3-dihydrobenzo[b][1,4]dioxin-6-yl)-1-hydroxy-3-(pyrrolidin-1-yl)propan-2-yl)-1-(quinolin-2-yl)pyrrolidine-3-carboxamide] reads “F (1-49% (or less than 50%))”. For `O=C(N[C@H](CN1CCC1)[C@H](O)c1ccc(OC2CC2)c(Cl)c1)[C@@H]1CCN(c2ccc(Cl)cc2)C1` [Compound 73, (R)-N-((1R,2R)-3-(azetidin-1-yl)-1-(3-chloro-4-cyclopropoxyphenyl)-1-hydroxypropan-2-yl)-1-(4-chlorophenyl)pyrrolidine-3-carboxamide], the IC50 lay in the range of 1 to 30 nM.

As to `O=C(N[C@H](CN1CCCC1)[C@H](O)c1ccc(N2CCOCC2)c(Cl)c1)[C@@H]1CCN(c2ccc(Cl)cc2)C1` [Compound 74, (R)-N-((1R,2R)-1-(3-chloro-4-morpholinophenyl)-1-hydroxy-3-(pyrrolidin-1-yl)propan-2-yl)-1-(4-chlorophenyl)pyrrolidine-3-carboxamide], the “Data Range (% inhibition)” value is listed as “D (75-100%)”. On to `O=C(N[C@H](CN1CCCC1)[C@H](O)c1ccc(N2CCOCC2)c(Cl)c1)[C@H]1CCN(c2ccc(Cl)cc2)C1` [Compound 74C, (S)-N-((1R,2R)-1-(3-chloro-4-morpholinophenyl)-1-hydroxy-3-(pyrrolidin-1-yl)propan-2-yl)-1-(4-chlorophenyl)pyrrolidine-3-carboxamide], for which the “Data Range (% inhibition)” value is “NA (not active—a negative value was generated for % inhibition)”.

Regarding `O=C(N[C@H](CN1CCCC1)[C@H](O)c1ccc(OC2CC2)c(Cl)c1)[C@@H]1CCN(c2cccc(Oc3ccccn3)c2)C1` [Compound 75, (R)-N-((1R,2R)-1-(3-chloro-4-cyclopropoxyphenyl)-1-hydroxy-3-(pyrrolidin-1-yl)propan-2-yl)-1-(3-(pyridin-2-yloxy)phenyl)pyrrolidine-3-carboxamide], the concentration for half-maximal inhibition (IC50) was 1 to 30 nM. Turning to `O=C(N[C@H](CN1CCCC1)[C@H](O)c1ccc(OC2CC2)c(Cl)c1)[C@H]1CCN(c2cccc(Oc3ccccn3)c2)C1` [Compound 75E, (S)-N-((1R,2R)-1-(3-chloro-4-cyclopropoxyphenyl)-1-hydroxy-3-(pyrrolidin-1-yl)propan-2-yl)-1-(3-(pyridin-2-yloxy)phenyl)pyrrolidine-3-carboxamide], the “Data Range (% inhibition)” value is given as “D (75-100%)”. Consider `O=C(N[C@H](CN1CCCC1)[C@H](O)c1ccc2c(c1)OCCO2)[C@@H]1CCN(c2ccc3cc(Cl)sc3c2)C1` [Compound 76, (R)-1-(2-chlorobenzo[b]thiophen-6-yl)-N-((1R,2R)-1-(2,3-dihydrobenzo[b][1,4]dioxin-6-yl)-1-hydroxy-3-(pyrrolidin-1-yl)propan-2-yl)pyrrolidine-3-carboxamide], for which the IC50 is 30 to 100 nM. Take `O=C(N[C@H](CN1CCCC1)[C@H](O)c1ccc2c(c1)OCCO2)C1CCN(c2ccc3cc(Cl)sc3c2)C1` (stereo partly drawn) [Compound 76D, 1-(2-chlorobenzo[b]thiopen-6-yl)-N-((1R,2R)-1-(2,3-dihydrobenzo[b][1,4]dioxin-6-yl)-1-hydroxy-3-(pyrrolidin-1-yl)propan-2-yl)pyrrolidine-3-carboxamide]: the IC50 lay within 1 to 30 nM. `O=C(N[C@H](CN1CCCC1)[C@H](O)c1ccc2c(c1)OCCO2)[C@H]1CCN(c2ccc3cc(Cl)sc3c2)C1` [Compound 76E, (S)-1-(2-chlorobenzo[b]thiophen-6-yl)-N-((1R,2R)-1-(2,3-dihydrobenzo[b][1,4]dioxin-6-yl)-1-hydroxy-3-(pyrrolidin-1-yl)propan-2-yl)pyrrolidine-3-carboxamide]: the IC50 fell in the range of 1 to 30 nM.

Take `O=C(N[C@H](CN1CCC1)[C@H](O)c1ccc2c(c1)OCCO2)[C@@H]1CCN(c2ccc(Cl)cc2)C1` [Compound 78, (R)-N-((1R,2R)-3-(azetidin-1-yl)-1-(2,3-dihydrobenzo[b][1,4]dioxin-6-yl)-1-hydroxypropan-2-yl)-1-(4-chlorophenyl)pyrrolidine-3-carboxamide]: the IC50 was 1 to 30 nM. For `O=C(N[C@H](CN1CCC1)[C@H](O)c1ccc2c(c1)OCCO2)[C@@H]1CCN(c2ccc3cc(F)ccc3c2)C1` [Compound 79, (R)-N-((1R,2R)-3-(azetidin-1-yl)-1-(2,3-dihydrobenzo[b][1,4]dioxin-6-yl)-1-hydroxypropan-2-yl)-1-(6-fluoronaphthalen-2-yl)pyrrolidine-3-carboxamide], the IC50 is 1 to 30 nM. On to `O=C(N[C@H](CN1CCC1)[C@H](O)c1ccc2c(c1)OCCO2)C1CCN(c2ccc3cc(F)ccc3c2)C1` (stereo partly drawn) [Compound 79A, N-((1R,2R)-3-(azetidin-1-yl)-1-(2,3-dihydrobenzo[b][1,4]dioxin-6-yl)-1-hydroxypropan-2-yl)-1-(6-fluoronaphthalen-2-yl)pyrrolidine-3-carboxamide], for which the half-maximal inhibitory concentration (IC50) was 1 to 30 nM.

Take `O=C(N[C@H](CN1CCC1)[C@H](O)c1ccc2c(c1)OCCO2)[C@H]1CCN(c2ccc3cc(F)ccc3c2)C1` [Compound 79B, (S)-N-((1R,2R)-3-(azetidin-1-yl)-1-(2,3-dihydrobenzo[b][1,4]dioxin-6-yl)-1-hydroxypropan-2-yl)-1-(6-fluoronaphthalen-2-yl)pyrrolidine-3-carboxamide]: the “Data Range (% inhibition)” value is “E (50-74% (or less than 75%))”. With `O=C(N[C@H](CN1CCCC1)[C@H](O)c1ccc2c(c1)OCCO2)[C@@H]1CCN(c2ccc3c(c2)CCCC3)C1` [Compound 80, (R)-N-((1R,2R)-1-(2,3-dihydrobenzo[b][1,4]dioxin-6-yl)-1-hydroxy-3-(pyrrolidin-1-yl)propan-2-yl)-1-(5,6,7,8-tetrahydronaphthalen-2-yl)pyrrolidine-3-carboxamide], the “Data Range (% inhibition)” value is recorded as “E (50-74% (or less than 75%))”. On to `O=C(N[C@H](CN1CCCC1)[C@H](O)c1ccc2c(c1)OCCO2)C1CCN(c2ccc3c(c2)CCCC3)C1` (stereo partly drawn) [Compound 80G, N-((1R,2R)-1-(2,3-dihydrobenzo[b][1,4]dioxin-6-yl)-1-hydroxy-3-(pyrrolidin-1-yl)propan-2-yl)-1-(5,6,7,8-tetrahydronaphthalen-2-yl)pyrrolidine-3-carboxamide], for which the concentration for half-maximal inhibition (IC50) fell in the range of 1 to 30 nM. Consider `O=C(N[C@H](CN1CCCC1)[C@H](O)c1ccc2c(c1)OCCO2)[C@H]1CCN(c2ccc3c(c2)CCCC3)C1` [Compound 80H, (S)-N-((1R,2R)-1-(2,3-dihydrobenzo[b][1,4]dioxin-6-yl)-1-hydroxy-3-(pyrrolidin-1-yl)propan-2-yl)-1-(5,6,7,8-tetrahydronaphthalen-2-yl)pyrrolidine-3-carboxamide], for which the IC50 lay within 1 to 30 nM. Regarding `O=C(N[C@H](CN1CCCC1)[C@H](O)c1cc(F)c2c(c1)OCCO2)[C@@H]1CCN(c2ccc3ccccc3c2)C1` [Compound 81, (R)-N-((1R,2R)-1-(8-fluoro-2,3-dihydrobenzo[b][1,4]dioxin-6-yl)-1-hydroxy-3-(pyrrolidin-1-yl)propan-2-yl)-1-(naphthalen-2-yl)pyrrolidine-3-carboxamide], the IC50 is 1 to 30 nM.
